Assay results published in article PMC4368788, “Depsides: Lichen Metabolites Active against Hepatitis C Virus” (PLoS ONE, 2015).
Entries after “also recorded” stand apart in the source; their conditions may differ. Read-outs that look alike come from different tables or passages of the source.

Columns and labels:
HCVcc [1] = test: Anti-HCV activity: HCVcc expressing Renilla luciferase in Huh-7.5.1 cells, luciferase readout; format: cell-based, hepatitis C virus; conditions: for IC50: Hepatitis C virus, Huh-7.5.1 cells infected with HCVcc, 1 h preincubation then 48 h with virus, mean ± SEM, three experiments; for SI (selectivity index): ratio of CC50 to IC50; for Anti-HCV activity: HCVcc in Huh-7.5.1 cells, up to 100 μM
Method: (§1) Huh-7.5.1 cells were maintained in Dulbecco's modified Eagle's medium (DMEM) containing 4.5 g/l D-glucose, 4 mM L-glutamine (Life Technologies), supplemented with 100 units/mL penicillin (Life Technologies), 100 μg/mL streptomycin (Life Technologies), non-essential amino acids (Sigma-Aldrich), 1 mM Hepes (Life Technologies) and 10% heat-inactivated fetal calf serum (FCS, Hyclone). […] In cell viability and HCV in vitro propagation experiments, the final concentration of DMSO was systematically adjusted to 0.1%. We checked that this amount of DMSO had no effect on the biological cycle of HCVcc in vitro (data not shown).
(§2) HCVcc was generated from the FL-J6/JFH-5’C19Rluc2AUbi construct, a monocistronic, full-length HCV genome that expresses Renilla luciferase. It was produced and titrated as described elsewhere, except for the readout for luciferase activity measurement. Cell viability was evaluated with the Cell Proliferation Reagent WST-1 (Roche), according to the manufacturer’s instructions. Luciferase assays were performed according to the manufacturer’s instructions (Promega) and measurements were performed on a Centro XS3 LB960 luminometer (Berthold Technologies).
(§3) Cell viability and viral replication data from at least three independent experiments were analyzed. The IC50 values of the compounds were determined from dose-response curves generated with seven to 12 concentrations of each compound. Curves were fitted to the data points by nonlinear regression analysis and IC50 values were interpolated from the resulting curves with GraphPad Prism 5.00 software.
We evaluated the anti-HCV activity of the 10 atranorin-related compounds, using a virus grown in cell culture (HCVcc) with a modification of its genome resulting in expression of the Renilla luciferase reporter gene. […] These two compounds are known to interfere with the entry and replication steps of viral cycle, respectively. The maximum dose of each tested compound was 100 μM, because most of these molecules became insoluble in aqueous solution at higher concentrations. The first experimental procedure used involved the preincubation of human hepatic Huh-7.5.1 cells for 1 h with various doses of the molecules. The cells were then cultured in the presence of both the molecules tested and the virus, for an additional 48 h. At the end of the incubation period, we assessed cell viability and viral replication. This protocol made it possible to test the effects of molecules on both virus entry and replication. […] Remarkably, compound 6 tended to give a slightly, but reproducibly higher viability signal when used at high doses, with a peak at about 50 μM. […] At concentrations greater than 50 μM, cytotoxic effects emerged, as shown by the decrease of the viability signal.

Huh-7.5.1 cells [2] = test: Cell viability in the inoculation/replication (I, R, I/R) procedure; format: cell-based, human
Method: (§4) An experimental procedure was designed to determine the inhibitor class (entry or replication) to which compounds 1, 5 and 6 belonged. HCVcc were added to the cell culture during a limited time window (around 17 h). The cells were then washed to eliminate viruses from the inoculum and viral replication was allowed to take place for an additional 30 h. The selected compounds were present in the culture medium during inoculation (I), replication (R), or both these phases (inoculation and replication, I/R). […] In terms of antiviral activity, we expected to obtain two inhibition profiles for the luminescence signal, depending on the step of the viral lifecycle targeted by the drug (Fig. 4B). […] The inhibitory effect on the establishment of replication (R conditions) observed at high doses was probably due principally to the inhibition of new infection cycles initiated by virions produced by cells infected with the inoculum. A different profile was obtained for telaprevir. […] Its presence in the medium from inoculation onwards prevented the priming of the infection process at the viral polyprotein maturation step, which normally takes place after the translation of the HCV genome issued from the infecting virus. This maturation step is also repeated during the replication phase, for amplification of the viral genome and virion assembly. It is therefore not surprising that inhibition was strongest when telaprevir was present throughout the viral lifecycle (I/R), as there was probably an additive effect. […] The chemical group in this position seems to influence not only the potency of the molecule, but also its mechanism of action. Further studies are required to identify the processes involved because, for example, we cannot rule out a role in the inhibition of viral entry for compounds 5 and 6, even though they appeared to act as replication inhibitors in this experiment. It could be hypothesized that the replacement of a methyl or hydroxymethyl by an aldehyde group in position C-3 would lead to a loss of replication inhibition, but maintenance of the ability to inhibit viral entry.
(§5) Fig 4 Effects of compounds 1, 5 and 6 on cell viability and HCV propagation in vitro. One day after seeding at 50,000 cells/cm^2, Huh-7.5.1 cells were infected with HCVcc at a MOI ~ 0.03 for 17 h (inoculation phase: I). The inoculum was removed and cell cultures were washed before the addition of new medium and incubation for an additional 30 h (replication phase: R). […] (A) Cell viability and (B) viral replication were assessed at the end of the incubation period. Results are expressed as percentages (mean ± SEM; n = 3) of the mean values obtained for the respective control cultures, in which cells were incubated with vehicle (0.1% DMSO) alone.

HCVcc [3] = test: Targeted stage of HCV life cycle: compounds present during inoculation (I), replication (R) or both (I/R), luciferase readout; format: cell-based, hepatitis C virus; conditions: for Inhibition profile / step of HCV lifecycle targeted: compounds present during I (17 h), R (30 h) or I/R
Method: as §4
Fig 4 Effects of compounds 1, 5 and 6 on cell viability and HCV propagation in vitro. One day after seeding at 50,000 cells/cm^2, Huh-7.5.1 cells were infected with HCVcc at a MOI ~ 0.03 for 17 h (inoculation phase: I). The inoculum was removed and cell cultures were washed before the addition of new medium and incubation for an additional 30 h (replication phase: R). Compounds were present at various concentrations either during both phases (I/R: black circles and solid lines) or during only one phase (I: black squares and dotted lines; R: black triangles and dashed lines). (A) Cell viability and (B) viral replication were assessed at the end of the incubation period. Results are expressed as percentages (mean ± SEM; n = 3) of the mean values obtained for the respective control cultures, in which cells were incubated with vehicle (0.1% DMSO) alone.

in vitro = format: cell-based, human; conditions: human, mean ± SEM; for CC50 at 48 h: half-maximal cytotoxicity concentration, Huh-7.5.1 cells, maximum dose tested 100 μM; for viability at 48 h, 50 µM / viability at 48 h, 100 µM: percentage of vehicle (0.1% DMSO) control; for viability at 48 h, 10 µM: 10 μM (controls)
Method: as §1, with “0.1%.” for “0.1%. We checked that this amount of DMSO had no effect on the biological cycle of HCVcc in vitro (data not shown).”
as §2, §3
(§6) We evaluated the anti-HCV activity of the 10 atranorin-related compounds, using a virus grown in cell culture (HCVcc) with a modification of its genome resulting in expression of the Renilla luciferase reporter gene. […] These two compounds are known to interfere with the entry and replication steps of viral cycle, respectively. […] The first experimental procedure used involved the preincubation of human hepatic Huh-7.5.1 cells for 1 h with various doses of the molecules. The cells were then cultured in the presence of both the molecules tested and the virus, for an additional 48 h. At the end of the incubation period, we assessed cell viability and viral replication. This protocol made it possible to test the effects of molecules on both virus entry and replication.

Huh-7.5.1 cells [4] = test: in vitro; format: cell-based, human; conditions: for Effect on cell viability signal: high doses, up to 100 μM; for Effect on cell viability signal / CC50: 48 h; for CC50: half-maximal cytotoxicity concentration, Huh-7.5.1 cells, mean ± SEM, maximum dose tested 100 μM
Method: as §1, with “0.1%.” for “0.1%. We checked that this amount of DMSO had no effect on the biological cycle of HCVcc in vitro (data not shown).”
as §2, §3, §6

[5] = Stability of the molecule in solution; format: physicochemical; conditions: even if dissolved immediately before use
[6] = Cell viability in the inoculation/replication (I, R, I/R) procedure; format: cell-based, human; conditions: human; I, R, I/R incubation conditions
Method: as §4, §5

[7] = percentage of vehicle control, n = 3

Row | Compound | IC50 (HCVcc [1]) | Inhibition profile / step of HCV lifecycle targeted (HCVcc [3]) | CC50 at 48 h (in vitro) | viability at 48 h, 50 µM (in vitro; n = 3) | viability at 48 h, 100 µM (in vitro; n = 3) | Effect on cell viability signal (Huh-7.5.1 cells [4]) | further results
1 | COC(=O)c1c(C)cc(OC(=O)c2c(C)cc(O)c(C=O)c2O)c(C)c1O [Compound 1, atranorin] | 22.3 ± 8 µM | inhibited only viral entry; also recorded: effects similar to those of erlotinib | > 100 µM | 95.9 ± 4.5% | 91.8 ± 5.9% | minimal loss of signal | Effect on cell viability (Huh-7.5.1 cells [2]; regardless of incubation conditions (I, R, I/R)): no effect on cell viability; Inhibitory effect when present only during inoculation (HCVcc [3]; I condition only, up to 100 μM): no inhibitory effect
2 | COC(=O)c1c(C)cc(OC(=O)c2c(C)cc(O)c(/C=C/C(C)=O)c2O)c(C)c1O [Compound 2, (E)-[3-hydroxy-4-(methoxycarbonyl)-2,5-dimethylphenyl]-2,4-dihydroxy-6-methyl-3-(3-oxobut-1-en-yl) benzoate] | 64.5 ± 26.5 µM | – | > 100 µM | 110 ± 5.9% | 107 ± 5.7% | – | Stability in solution [5]: instability of the molecule in solution; melting point: 234 to 236 °C (dec.)
3 | COC(=O)c1c(C)cc(OC(=O)c2c(C)cc(O)cc2O)c(C)c1O [Compound 3, methyl-3’-methyllecanorate] | 25.4 ± 1.7 µM | – | 82 µM | 52.7 ± 0.6% | 63.1 ± 2.9% | – | SI (selectivity index) (HCVcc [1]): 3.2; CC50 (Huh-7.5.1 cells [4]): 81.9 ± 13.6 µM
4 | COC(=O)c1c(C)cc(OC(=O)c2c(C)cc(O)c(C(=O)O)c2O)c(C)c1O [Compound 4, cladonioidesin] | > 100 µM | – | > 100 µM | 104 ± 2.5% | 90.4 ± 3.4% | minimal loss of signal | Anti-HCV activity (HCVcc [1]): inactive
5 | COC(=O)c1c(C)cc(OC(=O)c2c(C)cc(O)c(CO)c2O)c(C)c1O [Compound 5, Methyl-8-hydroxy-4-O-demethylbarbatate] | 11.8 ± 1.1 µM | interfered with viral replication; also recorded: profiles typical of replication inhibitors | 106 µM | 88.4 ± 7.3% | 55.8 ± 5.9% | – | SI (selectivity index) (HCVcc [1]): 8.9; CC50 [6]: ~100 µM; CC50 (Huh-7.5.1 cells [4]): 106 ± 7.3 µM
6 | COC(=O)c1c(C)cc(OC(=O)c2c(C)cc(O)c(C)c2O)c(C)c1O [Compound 6, Methyl-4-O-demethylbarbatate] | 13.3 ± 1.6 µM | interfered with viral replication; also recorded: profiles typical of replication inhibitors | > 100 µM | 145 ± 3.2% | 81.6 ± 20.6% | – | Cytotoxicity at 100 μM (Huh-7.5.1 cells [2]; 100 μM, except in R conditions): induced some cytotoxicity; Concentration above which cytotoxic effects emerged (Huh-7.5.1 cells [4]; decrease of the viability signal): greater than 50 μM; Concentration of the peak of the higher viability signal (Huh-7.5.1 cells [4]; slightly higher viability signal at high doses, modest stimulation of cell proliferation): about 50 μM
7 | COC(=O)c1c(C)cc(O)c(C)c1O [Compound 7, methyl-2,4-dihydroxy-3,6-dimethylbenzoate] | 50.6 ± 5 µM | – | > 100 µM | 101 ± 5.6% | 97.3 ± 6.2% | – | –
8 | COC(=O)c1c(C)cc(O)cc1O [Compound 8, methyl orsellinate] | ≥ 100 µM | – | > 100 µM | 106 ± 2.9% | 93.4 ± 4.2% | minimal loss of signal | Anti-HCV activity (HCVcc [1]): inactive
9 | Cc1cc(O)c(C=O)c(O)c1 [Compound 9, atranol] | 40.3 ± 0.6 µM | – | > 100 µM | 91.1 ± 3.5% | 78.7 ± 2.3% | minimal loss of signal | –
10 | COC(=O)c1c(C)cc(O)c(C=O)c1O [Compound 10, methyl haematommate] | 55.5 ± 7.9 µM | – | > 100 µM | 88.1 ± 5.5% | 72.2 ± 2% | minimal loss of signal | –
11 | C#Cc1cccc(Nc2ncnc3cc(OCCOC)c(OCCOC)cc23)c1 [Erlotinib, erlotinib, reference compound] | 0.64 ± 0.18 µM | most efficient if present at least during the initial interaction between cells and viruses | – | – | – | – | Effect on cell viability (Huh-7.5.1 cells [2]): small anti-proliferative effect; viability at 48 h, 10 µM (in vitro; [7]): 86.5 ± 5.1%
12 | CCC[C@H](NC(=O)[C@@H]1[C@H]2CCC[C@H]2CN1C(=O)[C@@H](NC(=O)[C@@H](NC(=O)c1cnccn1)C1CCCCC1)C(C)(C)C)C(=O)C(=O)NC1CC1 [Telaprevir, telaprevir, reference compound] | 0.18 ± 0.02 µM | inhibitory action regardless of the experimental conditions (I or R) | – | – | – | – | viability at 48 h, 5 µM (in vitro; 5 μM (controls), percentage of vehicle control, n = 3): 101.9 ± 0.9%; viability at 48 h, 10 µM (in vitro; [7]): 94.1 ± 4%
